Key:
[1] = target: Cyclin-dependent kinase 3 (Homo sapiens) (UniProt Q00526); test: Selectivity interaction (KinomeScan (DiscoverX)) EUB0000092b CDK3; details: at 10 µM
[2] = target: RAC-alpha serine/threonine-protein kinase (Homo sapiens, UniProt P31749); test: Selectivity interaction (Upstate Kinase Profiler service (Millipore)) EUB0000056c AKT1; details: at 1 µM
[3] = target: LIM domain kinase 2 (Homo sapiens) (UniProt P53671); test: Selectivity interaction (KinomeScan (DiscoverX)) EUB0000655a LIMK2; details: at 10 µM
Sequence of LIM domain kinase 2 (Homo sapiens) (P53671 whole entry, looked up, the tested form may be a part): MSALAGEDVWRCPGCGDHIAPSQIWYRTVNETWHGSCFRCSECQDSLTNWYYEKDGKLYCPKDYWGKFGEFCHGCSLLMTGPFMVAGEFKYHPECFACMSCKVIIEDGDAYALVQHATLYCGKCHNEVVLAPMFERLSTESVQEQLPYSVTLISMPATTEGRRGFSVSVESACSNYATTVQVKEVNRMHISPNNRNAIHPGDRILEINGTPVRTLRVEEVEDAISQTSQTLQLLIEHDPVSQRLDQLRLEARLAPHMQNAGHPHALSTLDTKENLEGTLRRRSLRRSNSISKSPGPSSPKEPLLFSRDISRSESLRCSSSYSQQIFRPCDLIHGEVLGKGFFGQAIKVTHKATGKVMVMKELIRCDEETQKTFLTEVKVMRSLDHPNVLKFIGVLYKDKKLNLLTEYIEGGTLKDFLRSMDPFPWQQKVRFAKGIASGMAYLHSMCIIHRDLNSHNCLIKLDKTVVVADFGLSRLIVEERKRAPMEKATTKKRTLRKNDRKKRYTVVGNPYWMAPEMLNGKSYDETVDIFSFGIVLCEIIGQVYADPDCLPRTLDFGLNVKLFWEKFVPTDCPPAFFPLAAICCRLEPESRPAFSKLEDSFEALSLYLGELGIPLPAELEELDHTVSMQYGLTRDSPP

[4] = target: Serine/threonine-protein kinase PAK 3 (Homo sapiens) (UniProt O75914); test: Selectivity interaction (ProQinase) EUB0000171b PAK3
Sequence of Serine/threonine-protein kinase PAK 3 (Homo sapiens) (O75914 whole entry, looked up): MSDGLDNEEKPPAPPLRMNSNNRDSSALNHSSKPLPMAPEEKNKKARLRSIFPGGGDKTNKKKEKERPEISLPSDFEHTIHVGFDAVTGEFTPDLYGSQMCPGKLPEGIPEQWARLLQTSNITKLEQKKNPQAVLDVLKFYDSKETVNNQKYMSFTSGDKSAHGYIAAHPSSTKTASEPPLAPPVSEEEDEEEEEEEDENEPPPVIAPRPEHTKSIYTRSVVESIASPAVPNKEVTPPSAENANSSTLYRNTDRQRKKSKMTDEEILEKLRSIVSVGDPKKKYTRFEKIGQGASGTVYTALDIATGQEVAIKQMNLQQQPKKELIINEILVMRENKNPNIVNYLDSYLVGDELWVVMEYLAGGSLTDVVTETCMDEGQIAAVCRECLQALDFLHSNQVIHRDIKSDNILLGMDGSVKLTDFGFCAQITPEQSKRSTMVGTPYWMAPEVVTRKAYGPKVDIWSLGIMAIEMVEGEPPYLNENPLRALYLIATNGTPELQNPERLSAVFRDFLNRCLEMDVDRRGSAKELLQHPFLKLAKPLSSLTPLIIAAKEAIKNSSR

[5] = target: Sodium-dependent noradrenaline transporter (Homo sapiens, UniProt P23975); test: Selectivity interaction (Panel of kinases, GPCRs, ion channels and transporters (enzymatic assay)) EUB0000266bCl SLC6A2
[6] = target: Phosphatidylinositol 4-phosphate 3-kinase C2 domain-containing subunit beta (Homo sapiens) (UniProt O00750); test: Selectivity interaction (KinomeScan (DiscoverX)) EUB0001079a PIK3C2B; details: at 1 µM
Sequence of Phosphatidylinositol 4-phosphate 3-kinase C2 domain-containing subunit beta (Homo sapiens) (O00750 whole entry, the tested form may be a part): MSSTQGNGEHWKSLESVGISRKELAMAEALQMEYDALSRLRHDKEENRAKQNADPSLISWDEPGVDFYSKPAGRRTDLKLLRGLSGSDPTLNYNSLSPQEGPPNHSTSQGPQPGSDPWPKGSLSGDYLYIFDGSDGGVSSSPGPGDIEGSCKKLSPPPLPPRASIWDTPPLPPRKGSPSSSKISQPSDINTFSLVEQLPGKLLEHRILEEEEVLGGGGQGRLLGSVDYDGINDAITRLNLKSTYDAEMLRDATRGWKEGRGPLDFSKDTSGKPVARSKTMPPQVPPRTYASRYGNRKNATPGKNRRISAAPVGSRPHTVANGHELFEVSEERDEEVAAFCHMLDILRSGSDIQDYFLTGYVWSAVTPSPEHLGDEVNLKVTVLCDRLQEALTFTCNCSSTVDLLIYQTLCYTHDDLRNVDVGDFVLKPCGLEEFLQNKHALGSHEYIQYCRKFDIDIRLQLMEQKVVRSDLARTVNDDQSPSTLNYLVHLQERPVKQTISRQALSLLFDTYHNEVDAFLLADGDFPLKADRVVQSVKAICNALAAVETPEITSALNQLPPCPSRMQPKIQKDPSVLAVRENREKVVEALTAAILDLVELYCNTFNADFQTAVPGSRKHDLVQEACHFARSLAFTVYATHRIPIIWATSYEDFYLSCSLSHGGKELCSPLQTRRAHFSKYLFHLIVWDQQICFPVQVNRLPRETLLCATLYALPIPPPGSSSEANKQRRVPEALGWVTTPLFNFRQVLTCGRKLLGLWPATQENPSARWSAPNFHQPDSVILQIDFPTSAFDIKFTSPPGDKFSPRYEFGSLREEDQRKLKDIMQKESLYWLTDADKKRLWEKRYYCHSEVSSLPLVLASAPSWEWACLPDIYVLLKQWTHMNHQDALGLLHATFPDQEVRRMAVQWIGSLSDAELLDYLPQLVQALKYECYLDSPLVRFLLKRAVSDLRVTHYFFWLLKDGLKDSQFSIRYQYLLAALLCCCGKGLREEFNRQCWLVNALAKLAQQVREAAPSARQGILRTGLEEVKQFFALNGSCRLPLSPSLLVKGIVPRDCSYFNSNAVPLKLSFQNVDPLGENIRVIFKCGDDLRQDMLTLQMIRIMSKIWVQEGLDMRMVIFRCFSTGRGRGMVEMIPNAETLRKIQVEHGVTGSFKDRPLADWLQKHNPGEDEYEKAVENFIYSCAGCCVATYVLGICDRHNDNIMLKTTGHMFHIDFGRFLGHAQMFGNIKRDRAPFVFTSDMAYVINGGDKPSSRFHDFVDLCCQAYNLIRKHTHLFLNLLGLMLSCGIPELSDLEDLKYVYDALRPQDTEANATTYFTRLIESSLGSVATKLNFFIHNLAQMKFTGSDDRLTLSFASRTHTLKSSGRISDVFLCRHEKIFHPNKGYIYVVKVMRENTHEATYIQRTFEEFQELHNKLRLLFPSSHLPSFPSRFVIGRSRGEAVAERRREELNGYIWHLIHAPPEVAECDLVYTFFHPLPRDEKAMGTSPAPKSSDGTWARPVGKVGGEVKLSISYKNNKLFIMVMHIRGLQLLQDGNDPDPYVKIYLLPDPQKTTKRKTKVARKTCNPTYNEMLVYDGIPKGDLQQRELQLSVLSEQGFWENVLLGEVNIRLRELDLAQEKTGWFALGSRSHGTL

[7] = target: Serine/threonine-protein kinase 38 (Homo sapiens) (UniProt Q15208); test: Selectivity interaction (ActivX KiNativ screen (kinase selectivity in THP-1 cell lysates)) EUB0000639a STK38; type: subcellular; details: lysate
Sequence of Serine/threonine-protein kinase 38 (Homo sapiens) (Q15208 2-465 limits assumed): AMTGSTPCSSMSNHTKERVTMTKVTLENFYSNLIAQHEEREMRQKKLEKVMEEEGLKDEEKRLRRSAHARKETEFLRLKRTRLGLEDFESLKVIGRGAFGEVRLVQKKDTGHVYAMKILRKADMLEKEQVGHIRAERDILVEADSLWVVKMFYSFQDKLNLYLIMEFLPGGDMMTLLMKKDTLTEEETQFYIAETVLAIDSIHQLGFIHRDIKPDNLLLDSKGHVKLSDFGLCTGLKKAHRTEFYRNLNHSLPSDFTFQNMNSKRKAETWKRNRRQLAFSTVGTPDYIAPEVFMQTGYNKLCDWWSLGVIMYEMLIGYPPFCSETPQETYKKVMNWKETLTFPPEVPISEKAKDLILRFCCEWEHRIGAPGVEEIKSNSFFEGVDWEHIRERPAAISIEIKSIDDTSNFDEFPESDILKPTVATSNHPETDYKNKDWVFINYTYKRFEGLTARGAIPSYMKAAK

[8] = target: T1, Inhibitor of nuclear factor kappa-B kinase subunit epsilon (Homo sapiens) (UniProt Q14164); test: Selectivity interaction (ActivX KiNativ screen (kinase selectivity in THP-1 cell lysates)) EUB0000639a IKBKE; type: subcellular; details: lysate, at 5 µM
T1 sequence (whole entry): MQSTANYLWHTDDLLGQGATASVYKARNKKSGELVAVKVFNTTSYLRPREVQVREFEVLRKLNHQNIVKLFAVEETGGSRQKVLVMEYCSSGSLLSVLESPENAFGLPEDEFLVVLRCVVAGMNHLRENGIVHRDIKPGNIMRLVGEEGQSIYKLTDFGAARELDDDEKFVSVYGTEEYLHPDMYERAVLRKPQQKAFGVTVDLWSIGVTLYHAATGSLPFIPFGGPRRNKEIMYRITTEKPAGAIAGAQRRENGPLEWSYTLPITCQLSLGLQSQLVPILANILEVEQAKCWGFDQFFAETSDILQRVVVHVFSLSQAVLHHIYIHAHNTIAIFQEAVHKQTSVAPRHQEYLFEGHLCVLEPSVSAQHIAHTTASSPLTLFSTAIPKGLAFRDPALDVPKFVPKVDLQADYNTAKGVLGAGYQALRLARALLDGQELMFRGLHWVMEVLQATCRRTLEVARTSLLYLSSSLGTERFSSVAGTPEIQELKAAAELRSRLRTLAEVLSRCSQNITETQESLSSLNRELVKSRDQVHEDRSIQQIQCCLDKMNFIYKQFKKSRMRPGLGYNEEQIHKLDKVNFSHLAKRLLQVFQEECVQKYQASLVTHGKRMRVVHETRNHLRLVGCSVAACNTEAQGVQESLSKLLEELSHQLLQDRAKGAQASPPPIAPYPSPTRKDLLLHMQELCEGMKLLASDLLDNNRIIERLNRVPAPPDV

[9] = target: Mitogen-activated protein kinase 1 (Homo sapiens, UniProt P28482); test: Selectivity interaction (ActivX KiNativ screen (kinase selectivity in THP-1 cell lysates)) EUB0000639a MAPK1; type: subcellular; details: lysate
Sequence of Mitogen-activated protein kinase 1 (P28482 whole entry): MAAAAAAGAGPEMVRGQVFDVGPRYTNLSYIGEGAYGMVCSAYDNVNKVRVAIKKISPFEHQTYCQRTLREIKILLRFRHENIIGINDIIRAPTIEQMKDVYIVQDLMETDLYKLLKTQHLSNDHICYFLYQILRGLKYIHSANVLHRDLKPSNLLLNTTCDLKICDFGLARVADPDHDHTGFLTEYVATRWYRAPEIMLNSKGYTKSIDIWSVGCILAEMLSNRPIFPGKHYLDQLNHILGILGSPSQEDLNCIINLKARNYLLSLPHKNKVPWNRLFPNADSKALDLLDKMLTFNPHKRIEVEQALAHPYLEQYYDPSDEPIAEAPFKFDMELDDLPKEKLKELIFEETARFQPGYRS

[10] = target: Tyrosine-protein kinase Fyn (Homo sapiens) (UniProt P06241); test: Selectivity interaction (ActivX KiNativ screen (kinase selectivity in THP-1 cell lysates)) EUB0000639a FYN; type: subcellular; details: lysate, at 0.04 µM
[11] = target: T2, Prostaglandin G/H synthase 2 (Homo sapiens) (UniProt P35354); test: Selectivity interaction (Panel of kinases, GPCRs, ion channels and transporters (enzymatic assay)) EUB0000223bCl PTGS2
T2 sequence (whole entry): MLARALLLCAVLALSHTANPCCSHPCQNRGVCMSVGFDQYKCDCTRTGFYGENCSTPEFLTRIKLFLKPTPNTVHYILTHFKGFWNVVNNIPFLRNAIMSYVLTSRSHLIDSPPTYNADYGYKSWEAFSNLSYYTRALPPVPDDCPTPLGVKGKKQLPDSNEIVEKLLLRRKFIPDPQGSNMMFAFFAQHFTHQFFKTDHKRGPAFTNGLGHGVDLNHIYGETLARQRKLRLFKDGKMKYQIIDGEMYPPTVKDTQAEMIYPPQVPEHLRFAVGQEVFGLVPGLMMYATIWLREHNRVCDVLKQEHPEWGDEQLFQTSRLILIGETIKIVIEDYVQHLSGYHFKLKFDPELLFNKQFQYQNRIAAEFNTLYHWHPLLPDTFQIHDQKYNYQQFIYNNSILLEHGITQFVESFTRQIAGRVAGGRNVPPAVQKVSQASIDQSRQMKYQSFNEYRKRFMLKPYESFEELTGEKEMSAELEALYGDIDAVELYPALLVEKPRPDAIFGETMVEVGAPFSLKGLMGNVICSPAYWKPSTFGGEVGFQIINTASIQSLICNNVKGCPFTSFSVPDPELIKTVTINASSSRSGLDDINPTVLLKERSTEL

[12] = test system: Phosphatidylinositol 4,5-bisphosphate 3-kinase catalytic subunit alpha isoform (Homo sapiens), P42336 [H1047Y]; details: at 10 µM
[13] = target: NT-3 growth factor receptor (Homo sapiens, UniProt Q16288); test: Selectivity interaction (KinomeScan (DiscoverX)) EUB0000607a NTRK3; details: at 10 µM
[14] = target: 5'-AMP-activated protein kinase catalytic subunit alpha-1 (Homo sapiens, UniProt Q13131); test: Selectivity interaction (KinomeScan (DiscoverX)) EUB0000607a PRKAA1; details: at 10 µM
[15] = target: Ribosomal protein S6 kinase alpha-2 (Homo sapiens) (UniProt Q15349); test: Selectivity interaction (KinomeScan (DiscoverX)) EUB0000045b RPS6KA2; details: at 10 µM
[16] = target: Tyrosine-protein kinase Fer (Homo sapiens) (UniProt P16591); test: Selectivity interaction (Ambit KINOMEscan and KiNATiv profiling in Jurkat cells) EUB0000090b FER; type: cell-based; details: at 1 µM
Sequence of Tyrosine-protein kinase Fer (Homo sapiens) (P16591 whole entry, looked up): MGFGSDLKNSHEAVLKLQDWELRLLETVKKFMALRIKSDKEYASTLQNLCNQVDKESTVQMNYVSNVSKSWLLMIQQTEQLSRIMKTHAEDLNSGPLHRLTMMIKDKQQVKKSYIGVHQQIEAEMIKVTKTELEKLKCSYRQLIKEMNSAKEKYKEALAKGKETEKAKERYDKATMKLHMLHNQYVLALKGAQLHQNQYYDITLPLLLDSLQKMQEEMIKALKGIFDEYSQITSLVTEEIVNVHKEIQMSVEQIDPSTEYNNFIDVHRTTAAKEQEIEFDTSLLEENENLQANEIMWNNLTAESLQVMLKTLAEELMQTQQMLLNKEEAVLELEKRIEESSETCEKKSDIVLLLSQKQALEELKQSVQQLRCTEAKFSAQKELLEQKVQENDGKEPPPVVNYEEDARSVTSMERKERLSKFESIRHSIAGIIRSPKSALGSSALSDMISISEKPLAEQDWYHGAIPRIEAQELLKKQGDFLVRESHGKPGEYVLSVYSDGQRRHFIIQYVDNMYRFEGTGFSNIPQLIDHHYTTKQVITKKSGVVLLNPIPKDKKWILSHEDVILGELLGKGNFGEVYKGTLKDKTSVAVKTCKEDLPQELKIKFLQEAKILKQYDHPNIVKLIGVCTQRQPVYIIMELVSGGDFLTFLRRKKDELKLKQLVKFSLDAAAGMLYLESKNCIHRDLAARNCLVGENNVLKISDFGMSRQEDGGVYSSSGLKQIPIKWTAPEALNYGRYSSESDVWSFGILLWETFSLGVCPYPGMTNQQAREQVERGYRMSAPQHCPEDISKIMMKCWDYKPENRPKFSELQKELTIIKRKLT

[17] = target: Serine/threonine-protein kinase 26 (Homo sapiens, UniProt Q9P289); test: Selectivity interaction (Ambit KINOMEscan and KiNATiv profiling in Jurkat cells) EUB0000090b STK26; type: cell-based; details: at 1 µM
[18] = target: Serine/threonine-protein kinase 32C (Homo sapiens) (UniProt Q86UX6); test: Selectivity interaction (Ambit KINOMEscan and KiNATiv profiling in Jurkat cells) EUB0000090b STK32C; type: cell-based; details: at 1 µM
[19] = target: Phosphatidylinositol 4,5-bisphosphate 3-kinase catalytic subunit beta isoform (Homo sapiens) (UniProt P42338); test: Selectivity interaction (KinomeScan (DiscoverX)) EUB0001619a PIK3CB; details: at 1 µM

Sequence of RAC-alpha serine/threonine-protein kinase (P31749 whole entry, the tested form may be a part): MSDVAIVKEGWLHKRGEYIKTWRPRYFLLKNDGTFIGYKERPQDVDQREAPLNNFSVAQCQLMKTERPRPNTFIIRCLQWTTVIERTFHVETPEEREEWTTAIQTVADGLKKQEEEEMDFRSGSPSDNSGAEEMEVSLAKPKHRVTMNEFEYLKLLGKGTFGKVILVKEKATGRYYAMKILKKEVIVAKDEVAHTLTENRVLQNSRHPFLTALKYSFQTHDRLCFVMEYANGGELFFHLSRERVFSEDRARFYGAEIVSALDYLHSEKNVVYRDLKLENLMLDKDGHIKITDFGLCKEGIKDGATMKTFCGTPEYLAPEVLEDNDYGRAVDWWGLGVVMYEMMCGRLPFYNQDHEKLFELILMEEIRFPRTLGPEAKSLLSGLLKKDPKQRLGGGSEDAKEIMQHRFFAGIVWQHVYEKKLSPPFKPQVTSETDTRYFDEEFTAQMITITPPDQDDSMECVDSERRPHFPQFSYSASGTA

Compound `CCC(=O)N1CCN(c2ccc(-n3c(=O)ccc4cnc5ccc(-c6cnc7ccccc7c6)cc5c43)cc2C(F)(F)F)CC1` has a % of control [1] of 100%.

Work on `Cc1ccc(-c2ccc3c(ccc4sc5c(c43)NC[C@@H](C)NC5=O)n2)cn1` yielded a % of inhibition [2] of 5%.

`CN(C)CCOc1ccc(-c2nc(-c3ccncc3)c(-c3ccc4c(c3)CC/C4=N\O)[nH]2)cc1` was tested, and the % of control [3] was 79%.

`C=CC(=O)Nc1cccc(C(=O)Nc2ccc(Nc3cc(-c4[nH]c(SC)nc4C)ccn3)cc2)c1` was tested, and the % of control ([4]; at 1 µM) was 98% and the % of control ([4]; at 5 µM) was 83%.

`CCn1c(-c2nc3cc(C(=O)N4CCCC(N)C4)ccc3n2C)cc2ccccc21` (stereo not drawn) showed a pXC50 [5] of 4.4 M.

Work on `Nc1cnc(N2CCc3cc(S(=O)(=O)Nc4c(F)cc(Cl)cc4F)cc(N4CCCC4=O)c32)nc1` [TP-020n] yielded a % of control [6] of 83%.

Compound `CC[C@@H]1[C@H](F)C(=O)N[C@@H]1COc1nccc2cc(C(N)=O)c(OC)cc12` [ZIMLOVISERTIB] has a % of inhibition ([7]; at 0.01 µM) of -3.8%, a % of inhibition ([7]; at 0.04 µM) of 5.4% and a % of inhibition ([7]; at 0.2 µM) of 31.8%. It also gave a % of inhibition ([7]; at 1 µM) of 70.6%, a % of inhibition ([7]; at 5 µM) of 90% and a % of inhibition [8] of 26.2%. The % of inhibition ([9]; at 0.01 µM) was -8.4%, the % of inhibition ([9]; at 0.04 µM) was -6% and the % of inhibition ([9]; at 0.2 µM) was 0.3%. For the same compound, the % of inhibition ([9]; at 1 µM) was -16.3%, the % of inhibition ([9]; at 5 µM) was -11.6% and the % of inhibition [10] was -0.2%.

`COc1cc(C(=O)N2CC[C@@H](O)[C@@H](N)C2)cc2nc(-c3cc4ccccc4n3CC3CC3)n(C)c12` was tested, and the pXC50 [11] was less than 4 M.

`CNC(=O)Nc1ccc(-c2nc(N3CC4CCC(C3)O4)c3cnn(C4CCC5(CC4)OCCO5)c3n2)cc1` gave a % of control [12] of 9.6%, a % of control [13] of 93% and a % of control [14] of 94%.

Compound `C=CC(=O)Nc1cc(-n2c(=O)ccc3cnc4ccc(-c5ccc(NS(C)(=O)=O)cc5)cc4c32)ccc1C` has a % of control [15] of 78%.

With `CN(C)C/C=C/C(=O)Nc1ccc(C(=O)N2CCCC(Nc3ncc(Cl)c(-c4c[nH]c5ccccc45)n3)C2)cc1` (stereo not drawn) the % of control [16] was 82%, the % of control [17] was 88% and the % of control [18] was 71%.

`N#Cc1cccc(-c2c[nH]c3ncnc(N4CCOCC4)c23)c1` gave a % of control [19] of 100%.

Source: ChEMBL document CHEMBL5465560, “Selectivity Literature for EUbOPEN Chemogenomic Library” (2024)
